Test results reported in ChEMBL document CHEMBL3879914, “Inhibitors of central nervous system vasoactive inhibitory peptide receptor 2” (2014).

Experiments:
[1] = target: T1, Vasoactive intestinal polypeptide receptor 2 (Homo sapiens) (UniProt P41587); test: (§1) Antagonist activity at recombinant human N-terminal signal peptide/FLAG epitope-tagged VIPR2 expressed in HEK293 cells co-expressing CAMYEL assessed as inhibition of VIP-induced cAMP accumulation at 0.5 uM preincubated for 5 mins with luciferin, coelenterazine H followed by VIP addition measured after 5 mins by BRET assay relative to control; assay type: functional, cell-based
T1 sequence (whole entry): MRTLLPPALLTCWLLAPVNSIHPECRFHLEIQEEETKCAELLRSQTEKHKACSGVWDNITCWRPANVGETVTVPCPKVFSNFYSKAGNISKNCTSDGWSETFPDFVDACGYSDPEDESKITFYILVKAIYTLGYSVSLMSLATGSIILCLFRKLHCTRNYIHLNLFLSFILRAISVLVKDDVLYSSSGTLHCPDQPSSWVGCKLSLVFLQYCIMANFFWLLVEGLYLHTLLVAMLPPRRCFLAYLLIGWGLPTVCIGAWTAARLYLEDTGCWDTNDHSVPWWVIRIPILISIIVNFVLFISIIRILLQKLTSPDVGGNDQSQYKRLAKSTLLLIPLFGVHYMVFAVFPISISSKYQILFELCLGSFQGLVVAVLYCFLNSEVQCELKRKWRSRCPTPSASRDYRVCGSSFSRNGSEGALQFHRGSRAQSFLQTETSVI

[2] = target: T1, Vasoactive intestinal polypeptide receptor 2 (Homo sapiens); test: as §1, with “5” for “0.5”; assay type: functional, cell-based
[3] = target: T1, Vasoactive intestinal polypeptide receptor 2 (Homo sapiens); test: as §1, with “1” for “0.5”; assay type: functional, cell-based
[4] = target: T1, Vasoactive intestinal polypeptide receptor 2 (Homo sapiens); test: as §1, with “epitope-tagged Rluc8-fused” for “epitope-tagged”, “cells” for “cells co-expressing CAMYEL”, “human mVenus-beta-arrestin2 binding” for “cAMP accumulation”, “5” for “0.5”; assay type: cell-based
[5] = target: T1, Vasoactive intestinal polypeptide receptor 2 (Homo sapiens); test: as §1, with “epitope-tagged Rluc8-fused” for “epitope-tagged”, “cells” for “cells co-expressing CAMYEL”, “human mVenus-beta-arrestin2 binding” for “cAMP accumulation”, “1” for “0.5”; assay type: cell-based
[6] = target: T1, Vasoactive intestinal polypeptide receptor 2 (Homo sapiens); test: as §1, with “epitope-tagged Rluc8-fused” for “epitope-tagged”, “cells” for “cells co-expressing CAMYEL”, “human mVenus-beta-arrestin2 binding” for “cAMP accumulation”; assay type: cell-based

Row | Compound | inhibition [1] | inhibition [2] | inhibition [3] | inhibition [4] | inhibition [5] | inhibition [6]
1 | CCNC(=O)[C@@H](Cc1ccccc1)C[C@H](O)CNS(=O)(=O)c1ccc([N+](=O)[O-])cc1 |  |  | -0.9% | -7.6% | 6% | -10 to 14.9%
2 | O=C([C@H](Cc1ccccc1)C[C@H](O)CNS(=O)(=O)c1ccc([N+](=O)[O-])cc1)N1CCCCC1 | -4.8% | 0.5% | -4.8% | -2.8% |  | 
3 | O=C(NC[C@@H](O)C[C@@H](Cc1ccccc1)C(=O)N[C@H]1c2ccccc2C[C@H]1O)c1cccc(Br)c1 | 17.4% | 20.3% | 18.5% | 5.2% | 6.8% | -3.8 to 12.8%
4 | CC1CCC(NC(=O)[C@@H](Cc2ccccc2)C[C@H](O)CNS(=O)(=O)c2ccc([N+](=O)[O-])cc2)CC1 (stereo not given in full) | -0.7% | 5.1% | 9.5% | -0.8% | -0.4% | 2.15 to 5.7%
5 | O=C(NC1CCCC1)[C@@H](Cc1ccccc1)C[C@H](O)CNS(=O)(=O)c1ccc([N+](=O)[O-])cc1 | -7.5% | -0.3% | -2.5% | 1.3% | -6.1% | -5.7 to 0.5%
6 | O=C(NCc1ccccc1)c1ccc(S(=O)(=O)NC[C@@H](O)C[C@@H](Cc2ccccc2)C(=O)N[C@H]2c3ccccc3C[C@H]2O)cc1 | 25% | 90.5% | 32.3% | -7.7% | -2% | 4.8 to 41.4%
7 | CCNC(=O)[C@H](Cc1ccccc1)C[C@H](O)CNS(=O)(=O)c1ccc([N+](=O)[O-])cc1 | -7.1% | -6.2% | -0.4% |  | 0.1% | -9.25 to 15.2%
8 | O=C(CCl)NC[C@@H](O)C[C@@H](Cc1ccccc1)C(=O)N[C@H]1c2ccccc2C[C@H]1O | 18.4% | 15.6% | 19.2% | 17.5% | 23.7% | 9.9 to 16.6%
9 | CCN(CC)C(=O)[C@@H](Cc1ccccc1)C[C@H](O)CNS(=O)(=O)c1ccc([N+](=O)[O-])cc1 | 0.5% |  | -8.4% | -2.7% | 1.2% | -6.6 to -3.6%
10 | O=C([C@@H](Cc1ccccc1)C[C@H](O)CNS(=O)(=O)c1ccc([N+](=O)[O-])cc1)N1CCOCC1 | -5.8% | 3% |  | 0.3% |  | 1.65 to 7%
11 | O=C(NC[C@@H](O)C[C@@H](Cc1ccccc1)C(=O)N[C@H]1c2ccccc2C[C@H]1O)C1CCCCCC1 | 18.4% | 17% | 17% | 10.5% | 16.4% | 13.8 to 24.4%
12 | CC(C)C(=O)NC[C@@H](O)C[C@@H](Cc1ccccc1)C(=O)N[C@H]1c2ccccc2C[C@H]1O | 0.7% | -0.9% | 2.6% |  |  | 
13 | CCCCNC(=O)[C@H](Cc1ccccc1)C[C@H](O)CNS(=O)(=O)c1ccc([N+](=O)[O-])cc1 | 0.9% | 5.3% | 5.1% | 13.8% | 1.9% | -5.6 to 9.55%
14 | O=C(NC[C@@H](O)C[C@@H](Cc1ccccc1)C(=O)N[C@H]1c2ccccc2C[C@H]1O)c1cccc(CCl)c1 | 0.5% | 15.1% | 2.3% |  | 5.7% | -8.1 to 2.4%
15 | O=C(NC[C@@H](O)C[C@@H](Cc1ccccc1)C(=O)N[C@H]1c2ccccc2C[C@H]1O)c1ccncc1 | 14.2% | 21% | 19.2% | -8.8% | 10.9% | 
16 | C[C@H](CC(C)(C)C)NC(=O)[C@H](Cc1ccccc1)C[C@H](O)CNS(=O)(=O)c1ccc([N+](=O)[O-])cc1 | -7.9% | -0.1% | 4.4% |  | 3% | -5.2 to 23.3%
17 | O=C(NC1CCCCCC1)[C@H](Cc1ccccc1)C[C@H](O)CNS(=O)(=O)c1ccc([N+](=O)[O-])cc1 | 1.7% | 12.9% | 5.6% | -2.4% | -5.4% | 
18 | NC(=O)[C@H](Cc1ccccc1)C[C@H](O)CNS(=O)(=O)c1ccc([N+](=O)[O-])cc1 | 6.7% | 2.1% | 3.6% |  |  | -6.5 to 10.4%
19 | O=C([C@H](Cc1ccccc1)C[C@H](O)CNS(=O)(=O)c1ccc([N+](=O)[O-])cc1)N1CCC(CO)CC1 | 2.1% | 6.2% | 4.4% | -4.5% |  | -8.4 to 0.85%
20 | O=C(CCCCBr)NC[C@@H](O)C[C@@H](Cc1ccccc1)C(=O)N[C@H]1c2ccccc2C[C@H]1O | 11.7% | 9.4% | 12.9% |  |  | -0.6 to 1.7%

The next lines start with the values.

Row | inhibition [1] | inhibition [2] | inhibition [3] | inhibition [4] | inhibition [5] | inhibition [6] | Compound
21 | -2.4% | 34.3% | 23% | -4.2% | -0.3% | 6.4 to 15.1% | O=C(Nc1ccc(S(=O)(=O)NC[C@@H](O)C[C@@H](Cc2ccccc2)C(=O)N[C@H]2c3ccccc3C[C@H]2O)cc1)C1CC1
22 | -5.5% | 7.8% | -3.4% | -8.6% | -7.8% | -6.7 to -0.4% | O=C(NCCc1cccc(Cl)c1)[C@H](Cc1ccccc1)C[C@H](O)CNS(=O)(=O)c1ccc([N+](=O)[O-])cc1
23 | 8.8% | 17.5% | 12.4% | 10.2% | 7.4% | 3.3 to 13.8% | O=C(NC1CCCc2ccccc21)[C@H](Cc1ccccc1)C[C@H](O)CNS(=O)(=O)c1ccc([N+](=O)[O-])cc1 (stereo not given in full)
24 | 1% | 16.7% | 6.9% | -7.5% | 5.1% | 4.6 to 5.3% | CC(C)C(=O)Nc1ccc(S(=O)(=O)NC[C@@H](O)C[C@@H](Cc2ccccc2)C(=O)N[C@H]2c3ccccc3C[C@H]2O)cc1
25 | -1% | 4.9% | 1.5% | 7.2% | -4.1% | -0.3 to 6.05% | O=C(NCc1ccccc1)[C@@H](Cc1ccccc1)C[C@H](O)CNS(=O)(=O)c1ccc([N+](=O)[O-])cc1
26 | 21.4% | 18.5% | 21.9% | 23.4% | 31.6% | 17.3 to 20.9% | CS(=O)(=O)NC[C@@H](O)C[C@@H](Cc1ccccc1)C(=O)N[C@H]1c2ccccc2C[C@H]1O
27 | 15.2% | 31.8% | 19.6% | 0.1% | 0.5% | 3.9 to 15.9% | O=C(NC1CCCC1)c1ccc(S(=O)(=O)NC[C@@H](O)C[C@@H](Cc2ccccc2)C(=O)N[C@H]2c3ccccc3C[C@H]2O)cc1
28 | 13.3% | 22.2% | 15.6% | 20% | 3.2% | 7.1 to 21.1% | CC(C)CS(=O)(=O)NC[C@@H](O)C[C@@H](Cc1ccccc1)C(=O)N[C@H]1c2ccccc2C[C@H]1O
29 | 21.1% | 26% | 11.3% |  |  | 4.9 to 6.9% | CO[C@@H]1Cc2ccccc2[C@@H]1NC(=O)[C@H](Cc1ccccc1)C[C@H](O)CN(C)S(=O)(=O)c1ccc([N+](=O)[O-])cc1
30 | -5.3% | -1.4% | -7.3% |  |  | -6.85 to 0% | O=C(N[C@H]1c2ccccc2C[C@H]1O)[C@H](Cc1ccccc1)C[C@H](O)CNS(=O)(=O)c1ccc(C(=O)N2CCCCC2)cc1
31 | 10.9% | 18.3% | 13.6% | -0.6% | -3.8% |  | Cc1ccc([N+](=O)[O-])cc1S(=O)(=O)NC[C@@H](O)C[C@@H](Cc1ccccc1)C(=O)N[C@H]1c2ccccc2C[C@H]1O
32 | 2.4% | 22.1 to 23.6% | 7.2 to 22.1% | 30.8% |  |  | O=C(NCc1ccc(F)cc1F)[C@H](Cc1ccccc1)C[C@H](O)CNS(=O)(=O)c1ccc([N+](=O)[O-])cc1
33 | 15.7% | 5.9% | 5.9% | -10% |  | -7.1 to -2.05% | CO[C@@H]1Cc2ccccc2[C@@H]1NC(=O)[C@H](Cc1ccccc1)C[C@H](O)CNS(=O)(=O)c1ccc([N+](=O)[O-])cc1
34 | 0.6% | 26.9% | 1.5% |  | -1.2% | -3.4 to 8.25% | CCC(=O)Nc1ccc(S(=O)(=O)NC[C@@H](O)C[C@@H](Cc2ccccc2)C(=O)N[C@H]2c3ccccc3C[C@H]2O)cc1
